The values that follow come from patent US9233948B2, “Pharmaceutical compositions comprising N-(4-(2-amino-3-chloropyridin-4-yloxy)-3-fluorophenyl)-4-ethoxy-1-(4-fluorophenyl)-2-oxo-1,2-dihydropyridine-3-carboxamide” (Bristol-Myers Squibb Company, priority 2010, dated 2016).

Values after ≈ are worked out from the molar mass of the structure shown. Like-named read-outs stand apart in the source and are kept apart here.

Series [1] can be described thus: Aqueous solubility of crystalline forms of Compound (I). The format is physicochemical. From the text: However, in the presence of an aqueous medium, the neat crystalline Form N-1 can convert to the crystalline sesquihydrate Form H1.5-2. […] One method to increase the bioavailability of compounds in a suspension is to increase the surface area of the particles in contact with the aqueous medium, which can be achieved by decreasing the particle size. However, reductions in particle size below diameters of approximately one micron requires specialized milling and dispersion techniques to prepare, stabilize, and sterilize the sub-micron suspensions. Desired is an aqueous suspension of Compound (I) in Form N-1 that has sufficient resistance to conversion to the sesquihydrate Form H1.5-2 to allow oral administration.

Series [2] in a line: Chemical stability of tablets after accelerated storage. The format is physicochemical. The following applies: control. The method, then: The chemical stability of the 25 mg tablet of Example 9 was evaluated after accelerated storage at various temperatures and humidity conditions for periods up to one month.
A short description of series [3]: Pharmacokinetics of capsules of Form N-1 with two particle sizes. The conditions noted are these: dog, in vivo, 10 mg/kg, 10 mpk; for bioavailability: oral, compared to IV data, read-out: Absolute Bioavailability; for AUC / Cmax / Tmax: po. Also on record: species or system dogs. The procedure:
The microsuspension of Example 7, tablets, and hard gelatin capsules containing the phosphate salt of Compound (I) were dosed orally at 10 mg/kg in dogs pretreated with pentagastrin. The resulting exposures were compared to an absolute bioavailability calculated by comparison to an IV dose in the same animals. Capsules were prepared comprising Compound (I), Form N-1 with two different particle sizes.

Series [4] in a line: Chemical and physical stability testing of Form N-1. The following applies: several different temperature and humidity conditions. The format is physicochemical.
[5] abbreviates: Particle Diameter D90 10 micron.
Where [6] appears, read: Particle Diameter D90 70 micron.

Take `CCOc1ccn(-c2ccc(F)cc2)c(=O)c1C(=O)Nc1ccc(Oc2ccnc(N)c2Cl)c(F)c1` [Form H1.5-2, N-(4-(2-Amino-3-chloropyridin-4-yloxy)-3-fluorophenyl)-4-ethoxy-1-(4-fluorophenyl)-2-oxo-1,2-dihydropyridine-3-carboxamide]: in series [1], the “aqueous solubility compared to Form N-1” value is reported as “lower aqueous solubility compared to Form N-1”.

On to `CCOc1ccn(-c2ccc(F)cc2)c(=O)c1C(=O)Nc1ccc(Oc2ccnc(N)c2Cl)c(F)c1` [Compound (I), N-(4-(2-Amino-3-chloropyridin-4-yloxy)-3-fluorophenyl)-4-ethoxy-1-(4-fluorophenyl)-2-oxo-1,2-dihydropyridine-3-carboxamide], for which, in series [2], the “Total Impurity” value is recorded as 0.13%.

For the compound `CCOc1ccn(-c2ccc(F)cc2)c(=O)c1C(=O)Nc1ccc(Oc2ccnc(N)c2Cl)c(F)c1` [Form N-1, N-(4-(2-Amino-3-chloropyridin-4-yloxy)-3-fluorophenyl)-4-ethoxy-1-(4-fluorophenyl)-2-oxo-1,2-dihydropyridine-3-carboxamide], the solubility in series [1] (aqueous medium, aqueous buffer, pH 7.4 and room temperature) was approximately 0.25 µg/mL (≈ 0.487 µM). In series [3] (setting [5]), the bioavailability is approximately 32%, the AUC came out at 90.2 ± 5.5 µM·h, the Cmax came out at 15 ± 2.7 µM and the Tmax came out at 6 h. In series [3] (setting [6]), the bioavailability came out at 12%, the AUC was 33.3 ± 8.4 µM·h, the Cmax was determined as 6.9 ± 1.1 µM and the Tmax was 2 h. Further, the “chemical and physical stability” value in series [4] is “suitable chemical and physical stability”.

The term solubility denotes how much of the substance goes into solution per volume. By bioavailability is commonly meant dose-corrected exposure relative to a reference, in per cent. What is called AUC is the area under the concentration-time curve, a measure of exposure. The Cmax is the peak of the concentration-time curve. Usually Tmax stands for the time from dosing to the highest level.
